From EP4715056A1, “BIO-BASED TRANS-ACONITATE, PREPARATION METHOD THEREFOR AND USE THEREOF” (Qingdao Institute of Bioenergy and Bioprocess Technology, …, priority 2023, dated 2024)
Counter-ions that a name gives are not always drawn.

What was measured:
Format in all cases: physicochemical
[1] = Acid value (KOH titration); conditions: aconitate/citrate products, Table 4
Procedure: The aconitates and citrates prepared in the above examples and comparative examples were tested for acid value, purity, chromaticity, yield, triester conversion rate, and water content. […] The mixture was neutralized with 0.02 mol·L^-1 potassium hydroxide aqueous solution until a faint pink color appears, and the consumed volume Vo was recorded. 1 g of the sample (accurate to 0.01 g) was weighed using a ground-neck conical flask, then one portion of the above neutralized solution was added. After the sample was completely dissolved, the sample was titrated with 0.02 mol·L^-1 potassium hydroxide-ethanol standard titration solution (the titration should be completed within 30 seconds) until a faint pink color appeared and persisted for 5 seconds without fading, which was considered as an end point. The consumed volume V was recorded. […] Chromatographic column: C18 column; injector: 10 µL micro-syringe; solvent: acetonitrile (HPLC grade); acquisition time: 15 min; mobile phase: 80% acetonitrile (HPLC grade) and 20% deionized water; injection volume: 1 µL; wavelength: 230 nm.

[2] = Chromaticity (platinum-cobalt colorimetry); conditions: aconitate/citrate products, Table 4; colour comparison at 25°C
Procedure: 3. Chromaticity: preparation of 500# platinum-cobalt colorimetric standard stock solution: 1.2450 g of potassium chloroplatinate and 1.0000 g of cobalt chloride were weighed, with an accuracy of 0.0002 g, the mixture was dissolved in 100 mL of hydrochloric acid, and then diluted to 1000 mL with distilled water. This solution is just the 500# colorimetric standard comparison solution.
Preparation of colorimetric standards below 500#: different amounts of the 500# stock solution was prepared, and diluted with distilled water to the volume of a colorimetric tube to prepare colorimetric standard solutions of any number. The calculation formula is as follows: V = (N×V1)/500 [formula]
In the formula, V is the volume of the 500# standard stock solution taken to prepare the N# colorimetric standard solution, in mL; V1 is the volume of the colorimetric tube used, in mL; and N is the number of the colorimetric standard solution to be prepared.
Color comparison determination was performed at 25°C.

[3] = Water content (Karl Fischer moisture meter); conditions: aconitate/citrate products, Table 4
Description: 6. Water content: a Karl Fischer moisture meter is used to test the water content (retained to two decimal places).

[4] = Residual amounts of fat-soluble and water-soluble pigments (HPLC); conditions: aconitate/citrate products, Table 4
Procedure: 7. Residual amounts of fat-soluble pigments and water-soluble pigments: • a high-performance liquid chromatograph (HPLC) was used, and the instrument sensitivity and stability of the detector should comply with the provisions of GB/T 16631-2008. Chromatographic column: C18 column; injector: 10 µL micro-syringe; solvent: acetonitrile (HPLC grade); acquisition time: 15 min; mobile phase: 80% acetonitrile (HPLC grade) and 20% deionized water; injection volume: 1 µL; wavelength: 230 nm.
Test: the instrument was adjusted according to the above provisions. After the baseline was stable, 0.2 µL of the sample was injected using a micro-syringe, and the integrator or chromatographic workstation was started at the same time. A pigment concentration-integral area standard curve was established by testing the integral areas of pigments with different concentrations. When the pigment content was measured, the corresponding pigment integral area was automatically given by the instrument, and the pigment concentration was obtained by comparing with the standard curve. The ratio of the pigment concentration to the sample concentration is the pigment content.

[5] = Hardness (Shore hardness tester, GB/T 531-2008); conditions: PVC plastic: 100 parts PVC resin, 35 parts plasticizer, 2 parts oxidized polyethylene wax, 5 parts octyltin maleate
Procedure: The aconitates and tributyl citrate prepared in the above examples and comparative examples were added as plasticizers to PVC resin to obtain PVC plastics. […] The above raw materials were mixed and prepared using the same mixing process to obtain finished PVC products. The performance tests were performed on different plasticizers and the obtained PVC finished products in the above examples and comparative examples. […] Three points were selected for each group of samples, each point was tested once, and a median value was taken. • 2. […] Compatibility: tests were performed using a water value method. Since water molecules are polar, the compatibility between the plasticizer and water can characterize the compatibility between the plasticizer and polar materials (PVC, PLA, and nitrile rubber). When a certain plasticizer has good compatibility with water, it has good compatibility with PVC, and vice versa. In the experiment, 2.5 g of plasticizer and 25 g of acetone were added to a beaker, titrated with a burette filled with deionized water, and agitated while titrating until turbidity appears, and the volume of deionized water consumed was recorded. • 4. Glass transition temperature (Tg): the glass transition temperature was tested using a dynamic mechanical analyzer. Test conditions: nitrogen was taken as the carrier gas, at a test temperature range of -40 to 80°C, a heating rate of 3°C/min, and a frequency of 1 Hz.

[6] = Tensile properties (GB/T 1040-2006): tensile modulus at 100%, elongation at break, elastic modulus; conditions: PVC plastic with 35 parts plasticizer; 50 mm/min, 25°C
Procedure: (§1) The aconitates and tributyl citrate prepared in the above examples and comparative examples were added as plasticizers to PVC resin to obtain PVC plastics. The PVC plastics include 100 parts of PVC resin, 35 parts of plasticizer, 2 parts of oxidized polyethylene wax, and 5 parts of octyltin maleate. The above raw materials were mixed and prepared using the same mixing process to obtain finished PVC products. The performance tests were performed on different plasticizers and the obtained PVC finished products in the above examples and comparative examples. […] Three points were selected for each group of samples, each point was tested once, and a median value was taken. • 2. […] Compatibility: tests were performed using a water value method. Since water molecules are polar, the compatibility between the plasticizer and water can characterize the compatibility between the plasticizer and polar materials (PVC, PLA, and nitrile rubber). When a certain plasticizer has good compatibility with water, it has good compatibility with PVC, and vice versa. In the experiment, 2.5 g of plasticizer and 25 g of acetone were added to a beaker, titrated with a burette filled with deionized water, and agitated while titrating until turbidity appears, and the volume of deionized water consumed was recorded. • 4. Glass transition temperature (Tg): the glass transition temperature was tested using a dynamic mechanical analyzer. Test conditions: nitrogen was taken as the carrier gas, at a test temperature range of -40 to 80°C, a heating rate of 3°C/min, and a frequency of 1 Hz.

[7] = Compatibility (water value method); conditions: 2.5 g plasticizer and 25 g acetone titrated with deionized water until turbidity; Table 5
Procedure: as §1

[8] = Glass transition temperature (dynamic mechanical analyzer); conditions: PVC plastic with 35 parts plasticizer; -40 to 80°C, 3°C/min, 1 Hz
Procedure: as §1

## CCCCOC(=O)C=C(CC(=O)OCCCC)C(=O)OCCCC [Comparative Example 1, tributyl aconitate, reference compound]
[1]
  Acid value: 0.05 KOH/g
[2]
  Chromaticity: >500 Pt-Co
[3]
  Water content: 0.03%
[4]
  Residual amounts of fat-soluble pigments: 16424 ppm
  Residual amounts of water-soluble pigments: 13861 ppm
[5]
  Hardness/Shore D: 46 Shore D
[6]
  Elastic modulus: 192.2 MPa
  Elongation at break: 223.2%
  Tensile modulus at 100%: 17.9 MPa
[7]
  Compatibility: 10.8 mL
[8]
  Tg: 30.7 °C

## CCCCOC(=O)C=C(CC(=O)OCCCC)C(=O)OCCCC [Comparative Example 2, tributyl aconitate, reference compound]
[1]
  Acid value: 0.05 KOH/g
[2]
  Chromaticity: 120 Pt-Co
[3]
  Water content: 0.05%
[4]
  Residual amounts of fat-soluble pigments: 2406 ppm
  Residual amounts of water-soluble pigments: 2248 ppm
[5]
  Hardness/Shore D: 45 Shore D
[6]
  Elastic modulus: 187.3 MPa
  Elongation at break: 231.4%
  Tensile modulus at 100%: 17.4 MPa
[7]
  Compatibility: 12.5 mL
[8]
  Tg: 28.4 °C

## CCCCOC(=O)C=C(CC(=O)OCCCC)C(=O)OCCCC [Comparative Example 3, tributyl aconitate, reference compound]
[1]
  Acid value: 0.05 KOH/g
[2]
  Chromaticity: 150 Pt-Co
[3]
  Water content: 0.04%
[4]
  Residual amounts of fat-soluble pigments: 2864 ppm
  Residual amounts of water-soluble pigments: 2698 ppm
[5]
  Hardness/Shore D: 45 Shore D
[6]
  Elastic modulus: 186.7 MPa
  Elongation at break: 233.6%
  Tensile modulus at 100%: 17.4 MPa
[7]
  Compatibility: 12.5 mL
[8]
  Tg: 28.7 °C

## CCCCOC(=O)CC(O)(CC(=O)OCCCC)C(=O)OCCCC [Comparative Example 4, tributyl citrate, reference compound]
[1]
  Acid value: 0.05 KOH/g
[2]
  Chromaticity: 150 Pt-Co
[3]
  Water content: 0.04%
[4]
  Residual amounts of fat-soluble pigments: 3054 ppm
  Residual amounts of water-soluble pigments: 2156 ppm
[5]
  Hardness/Shore D: 51 Shore D
[6]
  Elastic modulus: 274.8 MPa
  Elongation at break: 201.3%
  Tensile modulus at 100%: 18.1 MPa
[7]
  Compatibility: 13.9 mL
[8]
  Tg: 39.7 °C

## CCCCOC(=O)CC(O)(CC(=O)OCCCC)C(=O)OCCCC [Comparative Example 5, tributyl citrate, reference compound]
[1]
  Acid value: 0.05 KOH/g
[2]
  Chromaticity: 50 Pt-Co
[3]
  Water content: 0.03%
[4]
  Residual amounts of fat-soluble pigments: 852 ppm
  Residual amounts of water-soluble pigments: 653 ppm
[5]
  Hardness/Shore D: 48 Shore D
[6]
  Elastic modulus: 226.4 MPa
  Elongation at break: 213.4%
  Tensile modulus at 100%: 17.6 MPa
[7]
  Compatibility: 14.3 mL
[8]
  Tg: 37.8 °C

## CCCCOC(=O)C=C(CC(=O)OCCCC)C(=O)OCCCC [Example 19, tributyl aconitate]
[1]
  Acid value: 0.05 KOH/g
[2]
  Chromaticity: 30 Pt-Co
[3]
  Water content: 0.03%
[4]
  Residual amounts of fat-soluble pigments: 431 ppm
  Residual amounts of water-soluble pigments: 405 ppm
[5]
  Hardness/Shore D: 41 Shore D
[6]
  Elastic modulus: 74.6 MPa
  Elongation at break: 260.1%
  Tensile modulus at 100%: 14.6 MPa
[7]
  Compatibility: 16.7 mL
[8]
  Tg: 27.6 °C

## CCCCC(CC)COC(=O)C=C(CC(=O)OCC(CC)CCCC)C(=O)OCC(CC)CCCC (centres unmarked) [Example 20, tri(2-ethylhexyl) aconitate]
[1]
  Acid value: 0.05 KOH/g
[2]
  Chromaticity: 30 Pt-Co
[3]
  Water content: 0.05%
[4]
  Residual amounts of fat-soluble pigments: 634 ppm
  Residual amounts of water-soluble pigments: 610 ppm
[5]
  Hardness/Shore D: 54 Shore D
[6]
  Elastic modulus: 301.6 MPa
  Elongation at break: 181.6%
  Tensile modulus at 100%: 19.7 MPa
[7]
  Compatibility: 10.7 mL
[8]
  Tg: 42.5 °C
